Laboratory results published in paper PMC11855827, “High-Throughput Screening of Five Compound Libraries for Anthelmintic Activity and Toxicity Leads to the Discovery of Two Flavonoid Compounds” (International Journal of Molecular Sciences, 2025).
Read-outs that look alike come from different tables or passages of the source.

Test system: C. elegans
[1] = Table S2, C. elegans SS assay, 110 μM, averages of 4 data points

Compound | Percentage of motility inhibition 0 h [1] [%] | Percentage of motility inhibition 24 h [1] [%] | Percentage of motility inhibition 0 h (110 μM) [%] | Percentage of motility inhibition 24 h (110 µM) [%]
CN1[C@@H]2CC[C@H]1CC(OC(=O)[C@H](CO)c1ccccc1)C2.CN1[C@@H]2CC[C@H]1CC(OC(=O)[C@H](CO)c1ccccc1)C2.O=S(=O)(O)O (stereo partly drawn) [L‐Hyoscyamine (sulfate)] | 18 | 9 | – | –
NC(=O)c1ncn([C@@H]2O[C@H](CO)[C@@H](O)[C@H]2O)c1N.O=P(O)(O)O [AICAR (phosphate)] | 20 | 6 | – | –
OCC1=C[C@@H](O)[C@]2(O[C@@H]3O[C@H](CO)[C@@H](O)[C@H](O)[C@H]3O)C=CO[C@@H](O[C@@H]3O[C@H](CO)[C@@H](O)[C@H](O)[C@H]3O)[C@H]12 [Melittoside] | 0 | 4 | – | –
CCOC1c2c(ccc3c2OCO3)-c2ccc3cc4c(cc3c2N1C)OCO4 (stereo not drawn) [Ethoxysanguinarine] | 0 | 31 | – | –
COc1ccc(/C=C/C(=O)O[C@@H]2[C@H](O[C@@H]3O[C@@H](C)[C@H](O)[C@@H](O)[C@H]3O)[C@@H](O[C@@H]3O[C@@H](C)[C@H](O[C@@H]4OC[C@@H](O[C@@H]5O[C@H](CO)[C@H](O)[C@H](O)[C@H]5O)[C@H](O)[C@H]4O)[C@@H](O)[C@H]3O)[C@H](OC(=O)[C@]34CCC(C)(C)C[C@H]3C3=CC[C@@H]5[C@@]6(C)C[C@H](O)[C@H](O[C@@H]7O[C@H](CO)[C@@H](O)[C@H](O)[C@H]7O)[C@@](C)(C(=O)O)[C@@H]6CC[C@@]5(C)[C@]3(CO)CC4)O[C@@H]2C)cc1 [Onjisaponin B] | 30 | 33 | – | –
CC1=CC23C(=O)C(C=C4COC(C)(C)OC4C24OC(C)(C)OC14)C1C(CC3C)C1(C)C (stereo not drawn) [Ingenol-3,4,5,20-diacetonide] | 1 | 9 | – | –
Nc1ncnc2nc[nH]c12.Nc1ncnc2nc[nH]c12.O=S(=O)(O)O [Adenine (hemisulfate)] | 3 | 5 | – | –
COc1cc2c(cc1OC)[C@@H]1Cc3ccc(OC)c(OC)c3CN1CC2 [Rotun dine] | – | – | 0 | 4
CCC1=N[C@H]2C[C@@]3(C(=O)N(OC)c4ccccc43)[C@H]3CC1[C@@H]2CO3 [Humantenmine] | 8 | 12 | – | –
C[C@@H](CO[C@@H]1O[C@H](CO)[C@@H](O)[C@H](O)[C@H]1O)[C@@H]1CC[C@@]2(CC[C@]3(C)[C@H](CC[C@@H]4[C@@]5(C)CC[C@H](O[C@@H]6O[C@H](CO)[C@@H](O)[C@H](O)[C@H]6O[C@@H]6OC[C@@H](O)[C@H](O)[C@H]6O)[C@@](C)(CO[C@@H]6O[C@H](CO)[C@@H](O)[C@H](O)[C@H]6O)[C@@H]5CC[C@]43C)[C@H]2O)CO1 [Hosenkoside M] | 5 | 0 | – | –
C[C@@H]1O[C@@H](O[C@H]2[C@H](Oc3cc(O)c(C(=O)CCc4ccc(O)cc4)c(O)c3)O[C@H](CO)[C@@H](O)[C@@H]2O)[C@H](O)[C@H](O)[C@H]1O [Naringin Dihy drochalcone] | 14 | 1 | – | –
CC(=O)O[C@H](C[C@@H](C)[C@H]1C(=O)[C@H](O)[C@@]2(C)[C@@H]3CC[C@H]4C(C)(C)[C@@H](O[C@@H]5OC[C@H](O)[C@H](O)[C@H]5O)CC[C@@]45C[C@@]35CC[C@]12C)[C@@H]1OC1(C)C [Acetylshengmanol Arabinoside] | 30 | 30 | – | –
CC(C)(C)OC(=O)N1CCC[C@H]1c1nc(C(=O)O)cs1 [Antibiotic‐5d] | 0 | 0 | – | –
Larixyl acetate | 0 | 44 | – | –
COc1cc2c(cc1OC)-c1cc3ccc(OC)c(OC)c3c[n+]1CC2.[OH-] [Palmatine (hydroxide)] | 1 | 0 | – | –
COc1cc2c3c(c1OC)-c1ccccc1C[C@H]3NCC2 [N‐Nornuciferine] | 13 | 0 | – | –
COC(=O)C1=CC[C@@]23CC[C@@H]([C@@](C)(/C=C/C=C(\C)C(=O)O[C@@H]4O[C@H](CO)[C@@H](O)[C@H](O)[C@H]4O)OC2=O)[C@@]3(OC(C)=O)CC1 [Pseudolaric acid B β-D-glucoside] | 4 | 0 | – | –
Cl.c1ccc(CC2=NCCN2)cc1 [Tolazoline (hydrochloride)] | 21 | 0 | – | –
CC(=O)O.CC(=O)O.NC(=N\CCCCCC/N=C(N)/N=C(\N)Nc1ccc(Cl)cc1)/N=C(\N)Nc1ccc(Cl)cc1 [Chlorhexidine (diacetate)] | 38 | 62 | – | –
COc1cc(/C=C/C(=O)OC[C@H]2O[C@@H](O[C@@H]3[C@@H](O)[C@H](O)[C@@H](CO)O[C@H]3c3c(OC)cc4oc(-c5ccc(O)cc5)cc(=O)c4c3O)[C@H](O)[C@@H](O)[C@@H]2O)ccc1O [6‴‐Feruloylspinosin] | 9 | 13 | – | –
CC(C)=CCC[C@](C)(O[C@@H]1O[C@H](CO)[C@@H](O)[C@H](O)[C@H]1O)[C@H]1CC[C@]2(C)[C@@H]1[C@H](O)C[C@@H]1[C@@]3(C)CC[C@H](O)C(C)(C)[C@@H]3[C@@H](O[C@@H]3O[C@H](CO)[C@@H](O)[C@H](O)[C@H]3O[C@@H]3OC[C@@H](O)[C@H](O)[C@H]3O)C[C@]12C [Notoginsenoside R1] | 5 | 26 | – | –
COc1ccc(C[C@H](N)C(=O)N[C@H]2[C@@H](O)[C@H](n3cnc4c(N(C)C)ncnc43)O[C@@H]2CO)cc1.Cl.Cl [Puromycin (D ihydrochloride)] | 13 | 14 | – | –
Corylin | 25 | 15 | – | –
CC1(C)CC[C@]2(C(=O)O)CCC3=C([C@@H](CCl)C[C@@H]4[C@@]5(C)C[C@H](O)[C@H](O)[C@@](C)(C(=O)O)[C@@H]5CC[C@@]34C)[C@@H]2C1 [Tenuigenin] | 11 | 11 | – | –
CC(C)=CCc1c(O)cc(O)c2c(=O)c(O[C@@H]3O[C@@H](C)[C@H](O)[C@@H](O)[C@H]3O)c(-c3ccc(O)cc3)oc12 [IKarisoside A] | 32 | 5 | – | –
CO/N=C(\C(=O)N[C@@H]1C(=O)N2C(C(=O)O)=C(Cn3ccc(=N)n3CCO)CS[C@H]12)c1csc(N)n1.O=S(=O)(O)O [Cefoselis (sulfate)] | 8 | 0 | – | –
CO[C@H]1C[C@H](O[C@H]2[C@H](C)O[C@@H](O[C@@H]3/C(C)=C/C[C@@H]4C[C@@H](C[C@]5(C=C[C@H](C)[C@@H](C6CCCCC6)O5)O4)OC(=O)[C@@H]4C=C(C)[C@@H](O)[C@H]5OC/C(=C\C=C\[C@@H]3C)[C@]54O)C[C@@H]2OC)O[C@@H](C)[C@@H]1O [Doramectin] | 66 | 49 | – | –
